Results taken from ChEMBL document CHEMBL1201862, “PubChem BioAssay data set” (2004).
Calls of active or inactive are those of the source.

How the values were obtained:
[1] = target: Luciferin 4-monooxygenase (Photinus pyralis, UniProt P08659); experiment: firefly luciferase enzyme inhibitors, dose response, biochemical, luminescence (AID 1891)
Estrogen receptor beta [2] = target: T1, Estrogen receptor beta (Homo sapiens, UniProt Q92731); experiment: ERβ–SRC-3 coactivator interaction inhibitors, confirmation, orthogonal assay, biochemical, ELISA, streptavidin-HRP readout (AID 1060)
Estrogen receptor beta [3] = target: T1, Estrogen receptor beta
[4] = Luminescence Cell-Based Dose Confirmation HTS to Identify Inhibitors of Platelet Dense Granule Release. [Related pubchem assays: 1663 (Primary HTS), 1678 (Summary of Project)]; assay type: functional
[5] = target: T2, Carboxy-terminal domain RNA polymerase II polypeptide A small phosphatase 1 (Homo sapiens, UniProt Q9GZU7); experiment: inhibitors of CTDSP1, concentration-response testing, biochemical assay, absorbance-based, actives from ultra-high-throughput screening (AID 540297); assay type: functional
T2 sequence (Q9GZU7 whole entry): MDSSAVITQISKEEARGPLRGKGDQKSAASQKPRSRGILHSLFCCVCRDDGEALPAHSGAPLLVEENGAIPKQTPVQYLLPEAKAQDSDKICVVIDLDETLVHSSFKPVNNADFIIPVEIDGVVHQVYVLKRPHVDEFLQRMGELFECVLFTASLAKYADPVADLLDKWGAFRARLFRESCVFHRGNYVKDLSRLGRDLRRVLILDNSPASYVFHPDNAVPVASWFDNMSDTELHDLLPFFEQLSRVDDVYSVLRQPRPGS

Estrogen receptor = target: T3, Estrogen receptor (Homo sapiens, UniProt P03372);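 further: potency for inhibiting coactivator peptide recruitment to the receptor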
T3 sequence (P03372 whole entry): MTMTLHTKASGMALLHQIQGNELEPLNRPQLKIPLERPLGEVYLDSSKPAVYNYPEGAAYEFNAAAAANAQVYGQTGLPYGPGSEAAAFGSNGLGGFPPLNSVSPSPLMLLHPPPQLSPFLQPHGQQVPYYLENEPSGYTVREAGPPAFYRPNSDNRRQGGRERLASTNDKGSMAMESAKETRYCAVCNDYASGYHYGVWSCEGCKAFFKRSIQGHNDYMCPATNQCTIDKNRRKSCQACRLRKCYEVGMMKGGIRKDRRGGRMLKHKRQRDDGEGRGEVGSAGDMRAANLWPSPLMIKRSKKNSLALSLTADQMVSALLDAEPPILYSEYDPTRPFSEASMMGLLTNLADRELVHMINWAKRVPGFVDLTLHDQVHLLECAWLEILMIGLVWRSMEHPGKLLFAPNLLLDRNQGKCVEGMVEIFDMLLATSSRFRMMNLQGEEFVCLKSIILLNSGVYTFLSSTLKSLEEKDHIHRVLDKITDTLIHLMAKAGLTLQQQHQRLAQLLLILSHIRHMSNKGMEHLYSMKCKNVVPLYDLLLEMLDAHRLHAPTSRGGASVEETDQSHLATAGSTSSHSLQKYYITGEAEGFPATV

[6] = target: Ubiquitin carboxyl-terminal hydrolase BAP1 (Homo sapiens, UniProt Q92560); experiment: BAP1 deubiquitinase inhibitors, dose response, biochemical (AID 714); assay type: functional
[7] = target: T4, Zinc finger protein mex-5 (Caenorhabditis elegans, UniProt Q9XUB2); experiment: MEX-5/TCR-2 RNA interaction inhibitors, dose response, biochemical, C. elegans, fluorescence polarization (AID 1960)
T4 sequence (Q9XUB2 whole entry): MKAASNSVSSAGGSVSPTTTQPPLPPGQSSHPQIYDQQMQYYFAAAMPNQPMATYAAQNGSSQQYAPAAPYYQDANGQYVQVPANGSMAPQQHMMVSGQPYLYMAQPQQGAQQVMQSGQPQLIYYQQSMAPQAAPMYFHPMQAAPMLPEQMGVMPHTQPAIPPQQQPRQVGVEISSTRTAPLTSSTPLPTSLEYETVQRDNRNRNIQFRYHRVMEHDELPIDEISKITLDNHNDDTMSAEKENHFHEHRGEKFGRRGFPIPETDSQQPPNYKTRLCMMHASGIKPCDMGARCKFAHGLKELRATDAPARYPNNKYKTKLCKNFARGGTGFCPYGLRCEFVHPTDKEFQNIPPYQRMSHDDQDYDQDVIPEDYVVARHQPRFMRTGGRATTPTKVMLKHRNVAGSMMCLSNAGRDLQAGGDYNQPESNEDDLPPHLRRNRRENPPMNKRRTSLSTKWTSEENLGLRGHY

[8] = target: T5, RNA-binding protein pos-1 (Caenorhabditis elegans, UniProt G5EF15); experiment: inhibitors of POS-1/mex-3 RNA binding, dose response, biochemical, fluorescence polarization (AID 1964);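 further: purified POS-1 fused to maltose binding protein made in E. coli; potency of compounds blocking POS-1 binding to fluorescent RNA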
T5 sequence (G5EF15 whole entry): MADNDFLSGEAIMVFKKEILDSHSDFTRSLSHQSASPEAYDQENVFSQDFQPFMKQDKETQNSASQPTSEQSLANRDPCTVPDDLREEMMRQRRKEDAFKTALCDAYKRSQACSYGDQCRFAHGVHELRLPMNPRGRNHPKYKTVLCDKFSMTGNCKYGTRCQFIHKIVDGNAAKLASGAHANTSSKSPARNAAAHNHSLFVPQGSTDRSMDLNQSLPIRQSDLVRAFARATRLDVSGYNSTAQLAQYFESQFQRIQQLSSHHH

BJ [9] = experiment: cytotoxicity toward BJ-TERT fibroblasts, dose response, cell-based, RAS-independent, luminescence (AID 1933); assay type: functional; conditions: Homo sapiens
[10] = target: E3 ubiquitin-protein ligase Mdm2 (Homo sapiens, UniProt Q00987); experiment: enhancers of MDM2-luciferase reporter signal, concentration-effect titration, project on inhibitors of MDM2 ubiquitin ligase, cellular assay, luminescent readout, 384-well plate format (AID 1394); assay type: functional;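 further: MDM2 E3 inhibitors raise luminescence so EC50 is for signal enhancement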
BJ [11] = experiment: cells; assay type: functional, cell-based; conditions: Homo sapiens
[12] = target: T6, Replicative DNA helicase DnaB (Mycobacterium tuberculosis, UniProt P9WMR3); experiment: DnaB intein splicing inhibitors, dose response, biochemical, cell-free fluorescence (AID 449749); assay type: functional
T6 sequence (P9WMR3 whole entry): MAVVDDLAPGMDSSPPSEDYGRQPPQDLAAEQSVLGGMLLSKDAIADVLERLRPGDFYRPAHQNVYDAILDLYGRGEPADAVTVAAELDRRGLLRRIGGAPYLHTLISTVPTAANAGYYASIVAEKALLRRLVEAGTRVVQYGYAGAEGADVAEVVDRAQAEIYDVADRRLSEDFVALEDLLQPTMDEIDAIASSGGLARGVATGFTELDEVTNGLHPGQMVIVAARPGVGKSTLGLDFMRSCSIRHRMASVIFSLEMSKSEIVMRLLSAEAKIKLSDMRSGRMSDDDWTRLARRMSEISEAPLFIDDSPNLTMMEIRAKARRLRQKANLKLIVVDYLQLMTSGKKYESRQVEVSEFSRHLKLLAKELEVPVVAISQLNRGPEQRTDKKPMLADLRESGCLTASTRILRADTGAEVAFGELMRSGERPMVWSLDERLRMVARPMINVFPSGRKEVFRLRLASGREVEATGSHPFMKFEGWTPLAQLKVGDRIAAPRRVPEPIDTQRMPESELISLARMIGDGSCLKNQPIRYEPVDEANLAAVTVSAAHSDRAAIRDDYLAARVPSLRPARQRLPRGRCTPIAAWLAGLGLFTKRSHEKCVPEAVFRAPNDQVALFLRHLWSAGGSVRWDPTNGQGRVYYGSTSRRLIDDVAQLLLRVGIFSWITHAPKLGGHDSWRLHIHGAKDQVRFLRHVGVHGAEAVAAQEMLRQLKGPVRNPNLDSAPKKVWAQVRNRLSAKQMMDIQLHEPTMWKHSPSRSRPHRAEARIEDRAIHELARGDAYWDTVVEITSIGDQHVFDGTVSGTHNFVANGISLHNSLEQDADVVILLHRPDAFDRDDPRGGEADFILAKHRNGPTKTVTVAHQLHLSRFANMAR

Protein RecA = target: T7, Protein RecA (Mycobacterium tuberculosis, UniProt P9WHJ3); experiment: Fluorescence Cell-Free Homogeneous Dose Retest to Identify Inhibitors of RecA-Intein Splicing Activity. [Related pubchem assays (depositor defined):AID2097, AID2223, AID489010, AID492950]; assay type: functional
T7 sequence (P9WHJ3 whole entry): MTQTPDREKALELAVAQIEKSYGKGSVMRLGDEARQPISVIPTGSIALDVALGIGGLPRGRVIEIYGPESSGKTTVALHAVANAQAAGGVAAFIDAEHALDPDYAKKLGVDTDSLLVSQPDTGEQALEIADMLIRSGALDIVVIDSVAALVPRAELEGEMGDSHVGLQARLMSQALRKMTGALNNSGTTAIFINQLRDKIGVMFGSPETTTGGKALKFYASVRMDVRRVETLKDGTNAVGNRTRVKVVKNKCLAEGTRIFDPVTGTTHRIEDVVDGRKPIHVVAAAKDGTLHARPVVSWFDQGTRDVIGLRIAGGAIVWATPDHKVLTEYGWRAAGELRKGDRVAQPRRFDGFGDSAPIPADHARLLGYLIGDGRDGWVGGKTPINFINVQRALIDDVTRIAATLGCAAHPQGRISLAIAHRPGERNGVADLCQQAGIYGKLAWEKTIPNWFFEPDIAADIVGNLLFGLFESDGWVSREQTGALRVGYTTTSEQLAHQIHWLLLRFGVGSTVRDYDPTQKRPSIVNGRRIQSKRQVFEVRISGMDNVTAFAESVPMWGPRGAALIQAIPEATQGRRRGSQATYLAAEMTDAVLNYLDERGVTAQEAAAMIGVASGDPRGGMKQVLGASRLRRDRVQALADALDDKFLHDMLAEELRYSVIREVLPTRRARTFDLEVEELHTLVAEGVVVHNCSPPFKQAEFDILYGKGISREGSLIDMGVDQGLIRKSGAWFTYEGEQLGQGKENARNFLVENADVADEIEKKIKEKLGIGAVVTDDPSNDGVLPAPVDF

[13] = cytotoxicity toward DRD oncogenic fibroblasts, dose response, cell-based, non-viral oncogenic, luminescence (AID 1934); assay type: functional; conditions: Homo sapiens
[14] = target: T8, Tyrosine-protein phosphatase non-receptor type 7 (Homo sapiens, UniProt P35236); experiment: inhibitors of human HePTP phosphatase, […], biochemical, absorbance, leukemia target (AID 521); assay type: functional
T8 sequence (P35236 whole entry): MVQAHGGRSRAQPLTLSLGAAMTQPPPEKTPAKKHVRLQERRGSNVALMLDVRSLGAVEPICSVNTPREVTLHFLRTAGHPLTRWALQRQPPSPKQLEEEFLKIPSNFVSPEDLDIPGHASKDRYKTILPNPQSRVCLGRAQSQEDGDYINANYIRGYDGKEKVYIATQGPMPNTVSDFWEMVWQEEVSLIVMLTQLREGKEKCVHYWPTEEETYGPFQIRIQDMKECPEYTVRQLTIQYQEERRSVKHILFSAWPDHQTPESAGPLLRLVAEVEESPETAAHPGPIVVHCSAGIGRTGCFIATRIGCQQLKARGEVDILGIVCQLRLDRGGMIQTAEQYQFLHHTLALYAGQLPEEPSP

[15] = target: T9, Calpain-2 catalytic subunit (Sus scrofa, UniProt P43367); experiment: pig calpain II inhibitor potency, dose response, biochemical, fluorogenic peptide substrate (AID 1420); assay type: functional
T9 sequence (P43367 whole entry): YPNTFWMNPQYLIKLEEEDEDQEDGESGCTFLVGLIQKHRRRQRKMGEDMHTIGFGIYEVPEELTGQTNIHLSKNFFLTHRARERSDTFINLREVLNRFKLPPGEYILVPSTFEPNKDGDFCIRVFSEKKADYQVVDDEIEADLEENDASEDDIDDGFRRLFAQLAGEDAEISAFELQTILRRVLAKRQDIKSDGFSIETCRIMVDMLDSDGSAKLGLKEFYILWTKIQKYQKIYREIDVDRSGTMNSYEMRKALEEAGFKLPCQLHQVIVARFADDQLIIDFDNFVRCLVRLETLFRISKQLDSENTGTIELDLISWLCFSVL

Protein skinhead-1 = target: T10, Protein skinhead-1 (Caenorhabditis elegans, UniProt P34707); assay type: functional
T10 sequence (P34707 whole entry): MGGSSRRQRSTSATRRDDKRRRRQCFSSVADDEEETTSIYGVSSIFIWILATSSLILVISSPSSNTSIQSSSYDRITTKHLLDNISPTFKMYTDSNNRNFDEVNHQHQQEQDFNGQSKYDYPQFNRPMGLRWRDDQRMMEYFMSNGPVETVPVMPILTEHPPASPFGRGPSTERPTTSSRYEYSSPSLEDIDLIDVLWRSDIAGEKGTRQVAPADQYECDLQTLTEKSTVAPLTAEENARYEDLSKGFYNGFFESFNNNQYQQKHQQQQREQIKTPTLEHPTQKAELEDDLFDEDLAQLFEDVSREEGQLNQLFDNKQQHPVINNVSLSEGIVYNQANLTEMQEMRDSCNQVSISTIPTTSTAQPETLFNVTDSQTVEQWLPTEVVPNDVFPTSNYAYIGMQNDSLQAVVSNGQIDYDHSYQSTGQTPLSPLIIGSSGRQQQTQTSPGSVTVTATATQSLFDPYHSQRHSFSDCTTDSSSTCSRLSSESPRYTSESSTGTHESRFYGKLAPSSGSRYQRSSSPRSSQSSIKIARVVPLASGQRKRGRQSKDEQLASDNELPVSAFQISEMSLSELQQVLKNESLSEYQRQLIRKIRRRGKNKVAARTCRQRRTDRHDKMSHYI

[16] = target: 5-hydroxytryptamine receptor 1A (Homo sapiens, UniProt P08908); assay type: functional
Sequence of 5-hydroxytryptamine receptor 1A (P08908 whole entry): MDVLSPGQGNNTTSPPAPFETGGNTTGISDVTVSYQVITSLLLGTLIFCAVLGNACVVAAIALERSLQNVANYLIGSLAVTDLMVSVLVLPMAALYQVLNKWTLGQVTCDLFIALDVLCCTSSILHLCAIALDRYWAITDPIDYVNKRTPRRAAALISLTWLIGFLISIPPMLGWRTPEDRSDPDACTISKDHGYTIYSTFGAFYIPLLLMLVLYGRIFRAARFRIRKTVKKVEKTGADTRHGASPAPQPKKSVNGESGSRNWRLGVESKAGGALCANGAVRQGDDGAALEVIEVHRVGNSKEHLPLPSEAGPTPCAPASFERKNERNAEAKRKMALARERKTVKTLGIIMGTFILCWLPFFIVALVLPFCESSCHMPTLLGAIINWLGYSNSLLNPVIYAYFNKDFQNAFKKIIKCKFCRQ

T1 sequence (Q92731 whole entry): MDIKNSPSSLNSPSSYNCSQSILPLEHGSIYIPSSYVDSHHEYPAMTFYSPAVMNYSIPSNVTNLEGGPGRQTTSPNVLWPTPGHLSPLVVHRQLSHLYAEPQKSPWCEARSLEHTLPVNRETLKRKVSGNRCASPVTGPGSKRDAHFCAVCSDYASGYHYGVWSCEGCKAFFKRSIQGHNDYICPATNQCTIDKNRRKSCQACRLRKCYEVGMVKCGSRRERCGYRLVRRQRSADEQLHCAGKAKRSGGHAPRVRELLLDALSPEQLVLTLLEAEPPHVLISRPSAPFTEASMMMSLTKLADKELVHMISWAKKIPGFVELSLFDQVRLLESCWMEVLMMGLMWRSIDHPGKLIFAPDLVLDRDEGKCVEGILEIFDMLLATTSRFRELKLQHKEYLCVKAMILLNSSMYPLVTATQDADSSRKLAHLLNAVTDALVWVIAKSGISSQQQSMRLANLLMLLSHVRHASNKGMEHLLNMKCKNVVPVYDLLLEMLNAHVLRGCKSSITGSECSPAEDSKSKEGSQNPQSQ
Sequence of Luciferin 4-monooxygenase (P08659 whole entry): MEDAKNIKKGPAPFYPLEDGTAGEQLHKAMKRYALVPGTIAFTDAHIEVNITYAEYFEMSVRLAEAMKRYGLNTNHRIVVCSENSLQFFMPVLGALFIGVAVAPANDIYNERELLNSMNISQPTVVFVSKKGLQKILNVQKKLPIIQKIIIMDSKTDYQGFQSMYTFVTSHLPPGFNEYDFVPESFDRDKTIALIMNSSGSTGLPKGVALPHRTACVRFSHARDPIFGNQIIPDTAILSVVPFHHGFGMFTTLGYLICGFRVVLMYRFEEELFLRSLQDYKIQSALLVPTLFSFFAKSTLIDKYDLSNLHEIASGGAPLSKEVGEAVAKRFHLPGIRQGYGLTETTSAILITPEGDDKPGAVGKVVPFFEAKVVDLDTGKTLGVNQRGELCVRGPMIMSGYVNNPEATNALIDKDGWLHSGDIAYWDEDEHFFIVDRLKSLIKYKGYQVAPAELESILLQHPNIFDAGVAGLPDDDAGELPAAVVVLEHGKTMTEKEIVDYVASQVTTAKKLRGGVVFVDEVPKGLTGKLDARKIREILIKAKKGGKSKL
Sequence of Ubiquitin carboxyl-terminal hydrolase BAP1 (Q92560 whole entry): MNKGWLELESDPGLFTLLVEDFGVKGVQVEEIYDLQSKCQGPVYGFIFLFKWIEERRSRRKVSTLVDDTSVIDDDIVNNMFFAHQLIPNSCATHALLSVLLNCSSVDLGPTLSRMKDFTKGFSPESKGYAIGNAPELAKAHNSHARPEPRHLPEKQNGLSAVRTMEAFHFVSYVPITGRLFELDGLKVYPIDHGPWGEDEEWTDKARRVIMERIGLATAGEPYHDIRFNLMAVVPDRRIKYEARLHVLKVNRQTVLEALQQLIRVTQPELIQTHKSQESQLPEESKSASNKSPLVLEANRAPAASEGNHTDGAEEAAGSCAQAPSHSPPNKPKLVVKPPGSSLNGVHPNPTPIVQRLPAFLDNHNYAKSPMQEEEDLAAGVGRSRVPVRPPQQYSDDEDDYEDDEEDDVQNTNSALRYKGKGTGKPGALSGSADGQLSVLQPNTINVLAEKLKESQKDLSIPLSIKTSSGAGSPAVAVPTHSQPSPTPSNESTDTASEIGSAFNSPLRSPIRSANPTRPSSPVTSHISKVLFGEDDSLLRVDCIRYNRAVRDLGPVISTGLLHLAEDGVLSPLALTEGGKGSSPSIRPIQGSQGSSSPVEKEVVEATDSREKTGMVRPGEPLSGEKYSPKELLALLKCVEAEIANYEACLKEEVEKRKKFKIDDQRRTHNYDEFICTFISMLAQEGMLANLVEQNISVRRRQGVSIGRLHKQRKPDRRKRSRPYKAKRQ
Sequence of E3 ubiquitin-protein ligase Mdm2 (Q00987 whole entry): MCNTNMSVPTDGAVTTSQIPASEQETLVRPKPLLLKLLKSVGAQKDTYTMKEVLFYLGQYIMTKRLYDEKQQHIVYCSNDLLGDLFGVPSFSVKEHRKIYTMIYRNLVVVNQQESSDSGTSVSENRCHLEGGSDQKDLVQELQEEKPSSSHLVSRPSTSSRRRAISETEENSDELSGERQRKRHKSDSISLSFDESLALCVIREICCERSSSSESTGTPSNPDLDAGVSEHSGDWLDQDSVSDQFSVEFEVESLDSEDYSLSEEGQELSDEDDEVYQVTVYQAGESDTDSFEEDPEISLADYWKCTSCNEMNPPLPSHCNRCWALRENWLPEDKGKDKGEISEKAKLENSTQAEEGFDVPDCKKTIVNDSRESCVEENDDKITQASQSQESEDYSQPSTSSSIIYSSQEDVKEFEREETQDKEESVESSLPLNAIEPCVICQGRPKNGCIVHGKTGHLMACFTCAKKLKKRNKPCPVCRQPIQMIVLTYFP

Cc1ccc(-c2cc(C(=O)NCc3ccco3)c3ccccc3n2)o1
EC50 [1]: 36.8 µM (active)
IC50 (Estrogen receptor beta [2]): > 50 µM (not active)
IC50 (Estrogen receptor beta [3]): 3.37 µM (active)
EC50 [4]: > 112 µM (not active)
IC50 [5]: 4.39 µM (active)
IC50 (Estrogen receptor): 6.84 µM (active)

O=C(c1ccco1)[C@@H]1[C@@H]2C(=O)N(c3ccccc3)C(=O)[C@@H]2C2c3ccccc3C=CN21 (some centres undefined)
IC50 [6]: 23.4 µM (active)
EC50 [7]: 34.9 µM (active)
EC50 [8]: 39.1 µM (active)

Cc1ccc(C=C2C(Cl)=C(Cl)C(Cl)=C2Cl)cc1
EC50 (BJ [9]): 5.3 µM (inconclusive)
EC50 [10]: 0.78 µM (active)
EC50 (BJ [11]): 6.03 µM (inconclusive)
AC50 [12]: > 380 µM (inactive)
EC50 (Protein RecA): 5.66 µM (active)
EC50 [13]: 5.03 µM (inconclusive)

Cc1cc(NC(=O)c2ccc3c(c2)C(=O)N(Cc2cccnc2)C3=O)no1
IC50 [14]: > 100 µM (not active)
IC50 [15]: 13.7 µM (not active)

O=C(O)C1CCCCC1C(=O)NCCc1c[nH]c2ccccc12 (centres undefined)
IC50 (Protein skinhead-1): > 100 µM (inactive)
EC50 [16]: 34.8 µM (not active)
